# Reference: paper PMC12186257, “Serendipitous and Systematic Chemoproteomic Discovery of MBLAC2, HINT1, and NME1‑4 Inhibitors from Histone Deacetylase-Targeting Pharmacophores” (ACS Chemical Biology, 2025)
# Key:
# MBLAC2 = molecular target: T1, MBLAC2 (Homo sapiens, UniProt Q68D91); assay: chemoproteomic competition assay (MV4-11/SW620 lysate, iA/iC/iQ beads, MS readout); type: binding; details: for MBLAC2 binding / Kd: nine-dose competition assay; for EC50: focused library profiling; for Kd: read-out: KDapp MBLAC2
# T1 construct: incubated at increasing concentrations with a mixture of lysates of MV4–11 and SW620 cells; endogenous in cells; host or cells: mixed lysate of MV4-11 and SW620 cells
# T1 sequence (Q68D91 1-279): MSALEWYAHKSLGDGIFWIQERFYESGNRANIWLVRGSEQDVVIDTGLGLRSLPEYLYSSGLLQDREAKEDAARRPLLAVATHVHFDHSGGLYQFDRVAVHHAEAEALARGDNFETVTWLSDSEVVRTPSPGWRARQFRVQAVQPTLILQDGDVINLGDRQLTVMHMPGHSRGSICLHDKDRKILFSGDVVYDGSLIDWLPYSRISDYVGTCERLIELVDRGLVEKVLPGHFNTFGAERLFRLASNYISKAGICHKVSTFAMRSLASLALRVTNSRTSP
# Description: (§1) MBLAC2 is a metalloenzyme predicted to harbor one or two Zn^2+ ions in its active site. […] In this assay, compounds of interest are incubated at increasing concentrations with a mixture of lysates of MV4–11 and SW620 cells. The compound-treated lysates are then mixed with bead-immobilized hydroxamic acid-containing compounds iA, iC, and iQ (immobilized Quisinostat), which pull down compound-binding proteins such as HDACs, MBLAC2, ISOC1/2, ALDH2, and GATD3A (Figure a) that can be identified and quantified by mass spectrometry (MS). Proteins targeted by the library compounds in a preincubation step are prevented from being pulled down by the immobilized probes, leading to a dose-dependent reduction in MS signal. Initially, 12 metal-chelating compounds were profiled at two concentrations (10 μM and 100 μM) (Figure S3).
# (§2) Chemoproteomic competition assays
# Sample preparation. For the MBLAC2 and HDAC inhibitor competition assay, the generation of affinity matrices, lysate generation, pulldown assay, and sample preparation were performed as described in […]
# detail in REF1. […]
# (§3) LC-MS/MS. The different sample types were measured with different LC-MS/MS settings. MBLAC2 2-dose competition assays were measured with the Lumos1 setup, MBLAC2 9-dose competition assays were measured with the Lumos2 setup, and kinobeads assays were measured with the Eclipse setup.
# (§4) Peptides were analyzed via LC–MS/MS on a Dionex Ultimate3000 nano HPLC coupled to either one of two Orbitrap Fusion Lumos mass spectrometers, or to an Orbitrap Eclipse mass spectrometer, operated via the Thermo Scientific Xcalibur software.
# (§5) In the all setups, peptides were loaded on a trap column (100 μm × 2 cm, packed in-house with Reprosil-Gold C18 ODS-3 5 μm resin, Dr. Maisch, Ammerbuch) and washed with 5 μL/min solvent A (0.1% formic acid in HPLC grade water) for 10 min. Peptides were then separated on an analytical column (75 μm × 40 cm, packed in-house with Reprosil-Gold C18 3μm resin, Dr. Maisch, Ammerbuch) using a 50 min gradient ranging from 4 to 32% solvent B (0.1% formic acid, 5% DMSO in acetonitrile) in solvent A (0.1% formic acid, 5% DMSO in HPLC grade water) at a flow rate of 300 nL/min.
# (§6) The mass spectrometers were operated in data-dependent mode, automatically switching between MS1 and MS2 spectra. MS1 spectra were acquired over a mass-to-charge (m/z) range of 360–1300 m/z at a resolution of 60,000 (at m/z 200) in the Orbitrap using a maximum injection time of 50 ms and an automatic gain control (AGC) target value of 4e5.
# (§7) In Lumos settings, up to 12 peptide precursors were isolated in (isolation width of 1.2 Th for Lumos1 and 1.7 for Lumos2, maximum injection time of 75 ms, AGC value of 1e5 for Lumos1 and 2e5 for Lumos2), fragmented by HCD using 30% normalized collision energy (NCE) and analyzed in the Orbitrap at a resolution of 15,000 (Lumos2) or 30,000 (Lumos1). The dynamic exclusion duration of fragmented precursor ions was set to 20 s (Lumos1) or 30 s (Lumos2). In Eclipse measurements, a cycle time of 2 s was chosen. Peptides were isolated in the quadrupole with an isolation offset of 1.2 (isolation width of 1.2 Th, maximum injection time of 54 ms, AGC target of 200%) and fragmented by HCD with an NCE of 30% and analyzed in the Orbitrap at a resolution of 30,000. The dynamic exclusion on the Eclipse was set to 20 s.
# Data analysis. The data analysis of MBLAC2/HDAC inhibitor competition assays was performed as described in detail in REF1. LFQ intensity values were used for the calculation of relative residual binding to the affinity matrix. […]
# HeLa cells = assay: clathrin-mediated endocytosis of fluorescently labeled transferrin; type: cell-based; details: HeLa cells, 2 µM, 20 h
# Description: Given that local GTP production by NME1 and NME2 is essential for fueling dynamin-driven endocytosis, we investigated the effect of KV-50-mediated NME1/2 inhibition on fluorescent transferrin (TF) uptake in cells. HeLa cells were treated with KV-50 or known endocytosis inhibitors (Pitstop-2 and Dynasore), and surface-bound and internalized fluorescent TF were quantified.
# [1] = test system: cell proliferation or fitness; assay: alamar blue cell metabolic activity assay with MBLAC2 inhibitors; type: cell-based; details: 72h, five concentrations
# Description: Our earlier observation that MBLAC2 inactivation leads to the upregulation of extracellular vesicles (EVs), combined with evidence of MBLAC2’s association with late endosomes and membrane processes, , prompted us to hypothesize that MBLAC2 inactivation might impair endocytosis. To test this hypothesis, we measured clathrin-mediated endocytosis of fluorescently labeled transferrin (TF) in the presence and absence of MBLAC2 inhibitors. […] Thus, the precise biological roles of MBLAC2 remain elusive. However, we anticipate that the selective compounds identified in this study will serve as valuable tools for elucidating the cell biological functions of MBLAC2 in future research.
# Fig. S6| Characterization of MBLAC2 inhibitors. a, 9-dose competition assay of MBLAC2 selective inhibitors KV-65 and KV-79. b, Impact of MBLAC2i on cell metabolic activity assessed in an alamar blue assay. Cells were treated in triplicates with five concentrations of MBLAC2i and a DMSO vehicle control for 72h. c, Clathrin-mediated endocytosis assay based on measurement of fluorescent transferrin uptake. Dynasore and Pitstop-2 serve as positive controls. HeLa cells were pre-incubated with 100 µM Dynasore, 2 µM KV65, or 2 µM KV79 for 20 h before the microscopy readout. 30 µM Pitstop-2 was added only for 15 min before readout. […]
# [2] = test system: compound-binding proteins such as HDACs, MBLAC2, ISOC1/2, ALDH2, and GATD3A; assay: chemoproteomic competition assay, proteome-wide target binding profile; parameters: species or system human; details: dose-dependent competition
# Description: as §1, §2
# Sample preparation. For the MBLAC2 and HDAC inhibitor competition assay, the generation of affinity matrices, lysate generation, pulldown assay, and sample preparation were performed as described in detail in REF1. For the kinobeads assay, the generation of affinity matrices, lysate generation, pulldown assay, and sample preparation were performed as described in detail in REF2.
# as §3, §4, §5, §6
# as §7, with “HCD with an NCE of 30% and analyzed in the Orbitrap at a resolution of 30,000. The dynamic exclusion on the Eclipse was set to 20 s.” left out
# [3] = molecular target: recombinant HINT1 (hHint1) (Homo sapiens, UniProt P49773); assay: HINT1 enzyme activity assay (TrpA hydrolysis, fluorescence); type: biochemical; details: hHint1 0.002 µM, TrpA 0.5 µM, 25 °C
# Sequence of recombinant HINT1 (hHint1) (P49773 whole entry): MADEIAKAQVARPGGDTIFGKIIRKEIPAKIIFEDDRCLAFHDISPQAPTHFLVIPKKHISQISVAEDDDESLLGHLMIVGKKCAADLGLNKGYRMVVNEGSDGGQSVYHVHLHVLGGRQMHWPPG
# Description: While the biologically relevant substrates of HINT1 have not been clearly elucidated, the protein has been implicated in opioid receptor signaling, − regulation of the melanoma-associated transcription factor MITF, , and DNA damage repair. These functions position HINT1 as a potential pharmacological target for treating conditions such as opioid resistance or melanoma. The only reported HINT1-targeting pharmacophores are nucleoside-based nonhydrolyzable substrate analogs, such as the carbamate TrpGC (Figure a). , We evaluated the inhibitory potential of KV-24 and KV-30 in enzyme activity assays using recombinant HINT1. […] This discrepancy could be attributed to reduced affinity for the recombinant enzyme due to the absence of post-translational modifications (PTMs), cofactors, or interaction partners that enhance drug binding. Alternatively, it might result from substrate dilution in the lysate, whereas high substrate concentrations in the enzyme activity assay require the inhibitor to compete more effectively.
# Mouse brain proteomics – LC-MS/MS. Proteome analysis of brain mouse tissue samples was performed on a micro-flow LC timsTOF HT setup described in detail in REF14. Liquid chromatography in micro-flow mode was performed on a Vanquish Neo UHPLC System (Thermo Fisher Scientific) at a flow rate of 50 µL/min. […] 10 µg of peptide mix was injected and analyzed using a 58 min gradient starting at 1% B up to 45% B (1 h method). […]
# Mouse proteomics data analysis. The data files were analyzed with DIA-NN 1.8.1. […] The resulting protein group tables were further analyzed by Perseus 1.6.2.2. […]
# CME of transferrin and confocal microscopy analyses.For transferrin uptake experiments HeLa cells were seeded on Matrigel-coated coverslips, and incubated with 0.1 % DMSO, or with 100 µM dynasore, 20 µM KV50, 2 µM KV65, or 2 µM KV79 in media containing 10% FCS at 37°C for 20 h. […] All inhibitor treatments were performed in duplicate, to enable quantification of surface levels of transferrin receptors, and to assess the capability of transferrin receptor endocytosis. […]
# Toxoplasma gondii = test system: Toxoplasma gondii; parameters: method as in PMID 33360687, PMID 35483428, PMID 38431113, PMID 29414107; details: in human host cells; cited from earlier work
compound,measurement,setting,value
O=C(NO)c1ccc(Cn2c(=O)n(CCc3ccccc3)c(=O)c3ccccc32)cc1 [Compound J22352],MBLAC2 binding,MBLAC2,potently bound MBLAC2
O=C(NO)c1ccc(CN2c3ccccc3Sc3ccccc32)cc1 [KV-46],EC50,MBLAC2,83 nM
O=C(NO)c1ccc(CN2c3ccccc3S(=O)(=O)c3ccccc32)cc1 [KV-65],TF uptake,HeLa cells,not statistically significant
same,concentration up to which cell proliferation or fitness not affected,[1],> 10 µM
same,EC50,MBLAC2,37 nM
O=C(NO)c1ccc(CN2c3ccccc3Sc3ccc(C(F)(F)F)cc32)cc1 [KV-79],TF uptake,HeLa cells,not statistically significant
same,concentration up to which cell proliferation or fitness not affected,[1],> 10 µM
same,selectivity compared to HDACs,MBLAC2; abstract,over 60 fold
same,EC50,MBLAC2,25 nM
"O=C(CCCCCCC(=O)NO)NO [SBHA, suberoyl-bis-hydroxamic acid, reference compound]",targets / off-targets bound,[2],"bind off-targets such as ISOC1/2, GATD3A, and ALDH2"
CN(CC(=O)N(Cc1ccc(C2CCCCC2)cc1)c1ccc(C(=O)NO)cc1)S(=O)(=O)c1c(F)c(F)c(F)c(F)c1F [SH5–07],Kd,MBLAC2,~800 nM
O=C(NO)c1ccc(CN2CCCc3cc(Cl)ccc32)cc1 [SW-100],MBLAC2 binding,MBLAC2,potently bound MBLAC2
same,Kd,MBLAC2,75 nM
"Cn1c(CCCCCCC(=O)NO)nc2cc(N(CCCl)CCCl)ccc21 [Tinostamustine, reference compound]",targets / off-targets bound,[2],"bind off-targets such as ISOC1/2, GATD3A, and ALDH2"
"Nc1nc2c(ncn2[C@@H]2O[C@H](COC(=O)NCCc3c[nH]c4ccccc34)[C@@H](O)[C@H]2O)c(=O)[nH]1 [TrpGC, reference compound]",IC50,[3],9.1 µM
"CN1CCc2c(c3ccccc3n2Cc2ccc(C(=O)NO)cc2)C1 [Tubastatin A, reference compound]",inhibition of proliferation of protozoans,Toxoplasma gondii,potently inhibit the proliferation
ACY-1083,MBLAC2 binding,MBLAC2,potently bound MBLAC2
